Reference: patent US4260613A, “Pyridoxine derivatives” (Crinos Industria Farmacobiologica S.p.A., priority 1978, dated 1981)

How the values were obtained:
Type in all cases: in vivo
[1] = test system: caraganin-edema, normal rat; experiment: Caraganin-edema test according to Winter et al in the normal rat (anti-inflammatory activity); settings: 25 mg/kg per os, 3hrs, vs controls
Experimental: Caraganin-edema test according to Winter et al (Proc. Soc. Exp. Biol. Med., 111, 544, 1962) in the normal rat. The anti-inflammatory activity is expressed as a percentage of inhibition, after 3 and 6 hours, with respect to the controls.

rat = experiment: Ulcer-causing activity, UD50 per os in the rat (gastric lesions 7 h after treatment); settings: in words, vs 2-(4-isobutylphenyl)-propionic acid
Experimental: The ulcer-causing activity has been determined by administering the substances per os to rats which have fasted 18 hours and evaluating the presence of gastric lesions 7 hours after the treatment. The UD50 has been determined according to Litchfield and Wilcoxon (J. Pharmacol. Exp. Ther. 96, 99, 1949).

mouse = experiment: Acute toxicity, LD50 per os in the mouse (sole dose, 18 h fasting); settings: in words, vs 2-(4-isobutylphenyl)-propionic acid
Experimental: The acute toxicity has been determined by administering the substances per os in a sole dose to the mouse after 18 hours of fasting. The LD50 has been determined according to Litchfield and Wilcoxon (J. Pharmacol. Exp. Ther. 96, 99, 1949).

SMILES | ANTI-INFLAMMATORY Inhibition % [1] [%] | ulcer-causing activity with respect to the free acid (rat) | toxicity with respect to the free acid (mouse)
Cc1ncc(COC(=O)C(C)c2ccc(CC(C)C)cc2)c(CO)c1O (centres unmarked) [2-(4-isobutyl-phenyl)-propionic pyridoxine 5-ester] | 43.6 | lower toxicity and ulcer-causing activity | lower toxicity
Cc1ncc(COC(=O)C(C)c2ccc(CC(C)C)cc2)c2c1OC(C)(C)OC2 (centres unmarked) [2-(4-isobutylphenyl)-propionic isopropylidene-pyridoxine 5-ester] | – | lower toxicity and ulcer-causing activity | lower toxicity
